Laboratory results reported in article PMC6814295 (Insect biochemistry and molecular biology, 2018).

Legend:
[1] = target: AaPK1 (Aedes aegypti pyruvate kinase 1) (Aedes aegypti, UniProt Q16F38); assay: LDH-coupled NADH oxidation at […] nm, PEP varied; format: biochemical; conditions: 1 mM effector, 2 mM ADP, 20 mM MgCl2, 50 mM KCl, pH 7.5, 25 °C
[2] = target: Aedes aegypti pyruvate kinase 1 (Aedes aegypti); assay: crystal structure

| Molecule | LDH-coupled NADH oxidation at 340 nm, PEP varied ([1]; allosteric activator) | further results |
| --- | --- | --- |
| O=P(O)(O)OCC1(O)O[C@H](CO)[C@@H](O)[C@@H]1O (stereo partly shown) [F1P, fructose-1-phosphate] | our results indicate that F1P is an allosteric activator |  |
| O=C(CO)[C@H](O)[C@H](O)COP(=O)(O)O [R5P, ribulose-5-phosphate] |  | LDH-coupled NADH oxidation at 340 nm, PEP varied ([1]; allosteric inhibitor): while R5P is an allosteric inhibitor of AaPK1 |
| C[C@H](N)C(=O)O [alanine] | AaPK1 is regulated by alanine, glutamine, proline, and serine in a classic allosteric fashion |  |
| NC(=O)CC[C@H](N)C(=O)O [glutamine] | AaPK1 is regulated by alanine, glutamine, proline, and serine in a classic allosteric fashion |  |
| O=C(O)[C@@H]1CCCN1 [proline] | AaPK1 is regulated by alanine, glutamine, proline, and serine in a classic allosteric fashion |  |
| N[C@@H](CO)C(=O)O [serine] | AaPK1 is regulated by alanine, glutamine, proline, and serine in a classic allosteric fashion |  |
| Aedes aegypti pyruvate kinase 1 (enzyme) |  | stoichiometry N [2]: 4 |
